# Data published in paper PMC7957578, “N-(1,3,4-Oxadiazol-2-yl)Benzamides as Antibacterial Agents against Neisseria gonorrhoeae” (International Journal of Molecular Sciences, 2021).
# Read-outs that look alike come from different tables or passages of the source.
# Key:
# N. gonorrhoeae 200 = assay: MIC/MBC against N. gonorrhoeae clinical isolate 200; format: cell-based; conditions: Neisseria gonorrhoeae
# Protocol: (§1) Briefly, bacteria were grown overnight on chocolate agar II at 37° C in the presence of 5% CO2. Afterwards, a bacterial suspension equivalent to 1.0 McFarland standard was prepared and diluted in brucella broth supplemented with yeast extract, neopeptone, hematin, pyridoxal, and NAD. Test agents were added in the first row of the 96-well plates and serially diluted along the plates. Plates were then incubated at 37° C in the presence of 5% CO2 for 24 h. […] Plates were then incubated at 37 ° C in the presence of 5% CO2 for 24 h. The MBC was categorized as the lowest concentration that reduced bacterial growth by 99.9% [45, 46, 47].
# E. faecalis ATCC 29212 = assay: MIC/MBC (CLSI broth microdilution) against E. faecalis ATCC 29212; format: cell-based; conditions: Enterococcus faecalis, ATCC29212, E. faecalis ATCC 29212
# Protocol: (§2) The minimum inhibitory concentrations (MICs) of the tested compounds and control drugs, linezolid, vancomycin, and gentamicin, were determined using the broth microdilution method according to the guidelines outlined by the Clinical and Laboratory Standards Institute (CLSI) against clinically relevant bacterial (Staphylococcus aureus, MRSA, Escherichia coli, Enterococcus faecalis and Enterococcus faecium strains. S. aureus, MRSA, E. coli, Enterococcus faecalis and Enterococcus faecium were grown aerobically overnight on tryptone soy agar (TSA) plates at 37° C. Afterwards, a bacterial solution equivalent to 0.5 McFarland standard was prepared and diluted in cation-adjusted Mueller–Hinton broth (CAMHB) (for S. aureus, MRSA, and E. coli) to achieve a bacterial concentration of about 5 × 10^5 CFU/mL. Enterococcus faecalis and Enterococcus faecium 0.5 McFarland standard solution was diluted in tryptone soy broth (TSB) to achieve a bacterial concentration of about 5 × 10^5 CFU/mL. Compounds and control drugs were added in the first row of 96-well plates and serially diluted with the corresponding media containing bacteria. Plates were then incubated as previously described. […] The minimum bactericidal concentration (MBC) was tested by spotting 4 µL from wells with no growth onto TSA plates. Plates were incubated at 37 ° C for at least 18 h before recording the MBC. The MBC was categorized as the lowest concentration that reduced bacterial growth by 99.9% [45, 46, 47].
# VRE. faecalisATCC 51575 = assay: MIC/MBC (CLSI broth microdilution) against VRE faecalis ATCC 51575; format: cell-based; conditions: Enterococcus, VRE faecalis ATCC 51575
# Protocol: as §2
# VRE. faecalis ATCC 51299 = assay: MIC/MBC (CLSI broth microdilution) against VRE faecalis ATCC 51299; format: cell-based; conditions: Enterococcus, VRE faecalis ATCC 51299
# Protocol: as §2
# MRSA USA300 = assay: MIC/MBC (CLSI broth microdilution) against MRSA USA300; format: cell-based, methicillin-resistant Staphylococcus aureus; conditions: Staphylococcus aureus, MRSA USA300
# Protocol: as §2
# [1] = tested on: tested bacterial strains (Table 3); assay: MBC versus MIC against the panel of Gram-positive and Gram-negative pathogens; format: cell-based; conditions: MBCs more than three-fold higher than MICs, strains of Table 3
# Protocol: While the focus of these new N-(1,3,4-oxadiazol-2-yl)benzamides is towards N. gonorrhoeae, we proceeded to test their activity against other Gram-positive and Gram-negative pathogens. Intriguingly, HSGN-235, HSGN-237, and HSGN-238 had potent activity against the tested Gram-positive bacterial pathogens. For instance, all three compounds had potent activity against the staphylococcal strains, with MICs ranging from 0.25 to 1 µg/mL (Table 3). Furthermore, HSGN-235, HSGN-237, and HSGN-238 maintained potent activity against clinically relevant Gram-positive bacterial pathogens such as vancomycin-resistant enterococci (VRE) and Listeria monocytogenes (Table 3). Additionally, we moved to test if HSGN-235, HSGN-237, and HSGN-238 were active against other Gram-negative bacterial pathogens. […] This lack of activity against Gram-negative bacteria appears to be due to HSGN-235, HSGN-237, and HSGN-238 being a substrate for efflux.
# The minimum inhibitory concentrations (MICs) of the tested compounds and control drugs, linezolid, vancomycin, and gentamicin, were determined using the broth microdilution method according to the guidelines outlined by the Clinical and Laboratory Standards Institute (CLSI) against clinically relevant bacterial (Staphylococcus aureus, MRSA, Escherichia coli, Enterococcus faecalis and Enterococcus faecium strains. S. aureus, MRSA, E. coli, Enterococcus faecalis and Enterococcus faecium were grown aerobically overnight on tryptone soy agar (TSA) plates at 37° C. Afterwards, a bacterial solution equivalent to 0.5 McFarland standard was prepared and diluted in cation-adjusted Mueller–Hinton broth (CAMHB) (for S. aureus, MRSA, and E. coli) to achieve a bacterial concentration of about 5 × 10^5 CFU/mL. Enterococcus faecalis and Enterococcus faecium 0.5 McFarland standard solution was diluted in tryptone soy broth (TSB) to achieve a bacterial concentration of about 5 × 10^5 CFU/mL. Compounds and control drugs were added in the first row of 96-well plates and serially diluted with the corresponding media containing bacteria. […]
# N. gonorrhoeae 165 = assay: MIC/MBC against N. gonorrhoeae clinical isolate 165; format: cell-based; conditions: Neisseria gonorrhoeae
# Protocol: as §1
# N. gonorrhoeae WHO L = assay: MIC/MBC against N. gonorrhoeae WHO L reference strain; format: cell-based; conditions: Neisseria gonorrhoeae
# Protocol: as §1
# N. gonorrhoeae = assay: MIC against N. gonorrhoeae in presence of fetal bovine serum; format: cell-based; conditions: Neisseria gonorrhoeae, 24 h
# N. gonorrhoeae 194 = assay: MIC/MBC against N. gonorrhoeae clinical isolate 194; format: cell-based; conditions: Neisseria gonorrhoeae
# Protocol: as §1
# [2] = tested on: E. coli BW25113 (wild-type strain); assay: MIC/MBC (CLSI broth microdilution) against E. coli BW25113 wild type; format: cell-based, Escherichia coli; conditions: E. coli BW25113 wild-type strain
# Protocol: as §2
# S. aureus ATCC 25923 = assay: MIC/MBC (CLSI broth microdilution) against S. aureus ATCC 25923; format: cell-based; conditions: Staphylococcus aureus, ATCC25923, S. aureus ATCC 25923
# Protocol: as §2
# N. gonorrhoeae 197 = assay: MIC/MBC against N. gonorrhoeae clinical isolate 197; format: cell-based; conditions: Neisseria gonorrhoeae
# Protocol: as §1
# N. gonorrhoeae 166 = assay: MIC/MBC against N. gonorrhoeae clinical isolate 166; format: cell-based; conditions: Neisseria gonorrhoeae
# Protocol: as §1
# [3] = tested on: panel drug-resistant pathogenic N. gonorrhoeae strains; assay: MIC/MBC against a panel of drug-resistant N. gonorrhoeae strains; format: cell-based, Neisseria gonorrhoeae; conditions: MBC the same as or one-fold higher than MIC
# [4] = tested on: E. coli JW55031 (TolC Mutant); assay: MIC/MBC (CLSI broth microdilution) against E. coli TolC mutant; format: cell-based; conditions: Escherichia coli
# Protocol: as §2
# VRE. faecium ATCC 700221 = assay: MIC/MBC (CLSI broth microdilution) against VRE faecium ATCC 700221; format: cell-based; conditions: Enterococcus, VRE faecium ATCC 700221
# Protocol: as §2
# [5] = tested on: N. gonorrhoeae strain 181; assay: MIC by broth microdilution against N. gonorrhoeae strain 181; format: cell-based, Neisseria gonorrhoeae; conditions: Neisseria gonorrhoeae; N. gonorrhoeae strain 181; read-out: MIC
# Protocol: as §1
smiles,measurement,setting,value
"O=C(Nc1nnc(-c2ccc(Cl)s2)o1)c1ccc(OC(F)(F)F)cc1 [HSGN-238, N-(5-(5-Chlorothiophen-2-yl)-1,3,4-oxadiazol-2-yl)-4-(trifluoromethoxy)benzamide]",MBC,N. gonorrhoeae 200,0.125 µg/mL
same,MIC,N. gonorrhoeae 200,0.125 µg/mL
same,MBC,E. faecalis ATCC 29212; read-out: MBC,32 µg/mL
same,MIC,E. faecalis ATCC 29212; read-out: MIC,1 µg/mL
same,MBC,VRE. faecalisATCC 51575; read-out: MBC,32 µg/mL
same,MIC,VRE. faecalisATCC 51575; read-out: MIC,1 µg/mL
same,MBC,VRE. faecalis ATCC 51299; read-out: MBC,8 µg/mL
same,MIC,VRE. faecalis ATCC 51299; read-out: MIC,0.25 µg/mL
same,MBC,MRSA USA300; read-out: MBC,16 µg/mL
same,MIC,MRSA USA300; read-out: MIC,0.25 µg/mL
same,type of activity from MBC versus MIC,[1],bacteriostatic agents
same,MBC,N. gonorrhoeae 165,0.25 µg/mL
same,MIC,N. gonorrhoeae 165,0.125 µg/mL
same,MBC,N. gonorrhoeae WHO L,0.125 µg/mL
same,MIC,N. gonorrhoeae WHO L,0.06 µg/mL
same,MIC,N. gonorrhoeae; 1% FBS added to the media,0.25 µg/mL
same,MIC,N. gonorrhoeae; 5% FBS added to the media,1 µg/mL
same,MIC,N. gonorrhoeae; 10% FBS added to the media,1 µg/mL
same,MBC,N. gonorrhoeae 194,0.125 µg/mL
same,MIC,N. gonorrhoeae 194,0.125 µg/mL
same,MIC,[2],>8 µg/mL
same,MBC,"[2]; Escherichia coli, read-out: MBC",> 8 µg/mL
same,MIC,"[2]; Escherichia coli, read-out: MIC",> 8 µg/mL
same,MBC,S. aureus ATCC 25923; read-out: MBC,> 64 µg/mL
same,MIC,S. aureus ATCC 25923; read-out: MIC,0.25 µg/mL
same,MBC,N. gonorrhoeae 197,0.125 µg/mL
same,MIC,N. gonorrhoeae 197,0.125 µg/mL
same,MBC,N. gonorrhoeae 166,0.25 µg/mL
same,MIC,N. gonorrhoeae 166,0.125 µg/mL
same,type of activity from MBC versus MIC,[3],bactericidal activity
same,MBC,[4],32 µg/mL
same,MIC,[4],0.06 µg/mL
same,MBC,VRE. faecium ATCC 700221; read-out: MBC,8 µg/mL
same,MIC,VRE. faecium ATCC 700221; read-out: MIC,0.25 µg/mL
same,MIC,[5],0.125 µg/mL
